Results as given in patent US20260327191A1, “GSK3a INHIBITORS AND METHODS OF USE THEREOF” (Blueprint Medicines Corporation, priority 2023, published 2026).
Structures can show the parent of a compound that is named as a salt.

What was measured:
GSK3α or GSK3B = experiment: Measured Km for ATP in the GSK3 in vitro enzymatic activity assay; format: biochemical, human; details: role: substrate; 100 mM HEPES pH 7.5, 10 mM MgCl2; 1.0 μM peptide substrate (5-FAM-KRREILSRRPpSYR-COOH); 25° C.
Experimental: Full length human GSK3α or GSK3B expressed as N-terminal GST fusion proteins in baculovirus host were purchased from Carna Biosciences (Japan). The kinase was pre-incubated with ATP (adenosine-5′-triphosphate) for 45 min, then incubated with tested compounds for another 45 min in assay buffer that contains 100 mM HEPES (N-2-hydroxyethylpiperazine-N′-2-ethanesulfonic acid), pH 7.5, 10 mM MgCl2, 1.0 mM DTT, and 0.015% Briji-35. […] Percent inhibition was plotted against compound concentration to generate 10-point dose response curve with 3-fold serial dilution starting from 10 μM. IC50 value was determined from the 4-parameter logistic curve fitting.

human GSK3α = biological target: T1, human GSK3α (Homo sapiens, UniProt P49840); experiment: In vitro enzymatic activity assay, GSK3α; format: biochemical; details: 1.0 mM ATP, 1.0 μM peptide substrate, 120 min, 25° C, read-out: Enzyme GSK3α (IC50)
T1 construct: Full length human GSK3α or GSK3B expressed as N-terminal GST fusion proteins; GST (N); purchased Carna Biosciences (Japan); host or cells: baculovirus host
T1 sequence (P49840 whole entry, the tested form may be a part): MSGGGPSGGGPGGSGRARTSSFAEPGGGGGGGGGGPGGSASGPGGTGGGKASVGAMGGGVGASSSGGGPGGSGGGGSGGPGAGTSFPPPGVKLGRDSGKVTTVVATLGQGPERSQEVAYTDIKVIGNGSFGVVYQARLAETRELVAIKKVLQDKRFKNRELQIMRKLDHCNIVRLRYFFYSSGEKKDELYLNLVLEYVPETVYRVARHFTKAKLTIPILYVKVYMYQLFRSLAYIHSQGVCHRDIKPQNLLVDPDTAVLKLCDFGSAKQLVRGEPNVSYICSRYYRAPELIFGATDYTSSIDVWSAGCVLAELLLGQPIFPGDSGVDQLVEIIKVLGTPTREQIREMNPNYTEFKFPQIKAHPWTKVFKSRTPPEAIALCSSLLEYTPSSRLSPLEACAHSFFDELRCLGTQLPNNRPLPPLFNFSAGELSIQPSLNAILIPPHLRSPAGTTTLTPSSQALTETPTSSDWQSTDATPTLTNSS

GSK3A = biological target: T2, GSK3A (Homo sapiens, UniProt P49840); experiment: NanoBRET cellular target engagement assay, Nanoluc-GSK3A in HEK293 cells; format: cell-based; details: NanoBRET GSK3α IC50, HEK293 cells, tracer K-8, 2 hours, 37° C
T2 construct: expressed in transfected cells
T2 sequence (P49840 whole entry): as the sequence (P49840 whole entry, the tested form may be a part) above

GSK3B [1] = biological target: T3, GSK3B (Homo sapiens, UniProt P49841); experiment: NanoBRET cellular target engagement assay, Nanoluc-GSK3B in HEK293 cells; format: cell-based; design: expressed in transfected cells; details: NanoBRET GSK3β IC50, HEK293 cells, tracer K-8, 2 hours, 37° C
T3 sequence (P49841 whole entry, the tested form may be a part): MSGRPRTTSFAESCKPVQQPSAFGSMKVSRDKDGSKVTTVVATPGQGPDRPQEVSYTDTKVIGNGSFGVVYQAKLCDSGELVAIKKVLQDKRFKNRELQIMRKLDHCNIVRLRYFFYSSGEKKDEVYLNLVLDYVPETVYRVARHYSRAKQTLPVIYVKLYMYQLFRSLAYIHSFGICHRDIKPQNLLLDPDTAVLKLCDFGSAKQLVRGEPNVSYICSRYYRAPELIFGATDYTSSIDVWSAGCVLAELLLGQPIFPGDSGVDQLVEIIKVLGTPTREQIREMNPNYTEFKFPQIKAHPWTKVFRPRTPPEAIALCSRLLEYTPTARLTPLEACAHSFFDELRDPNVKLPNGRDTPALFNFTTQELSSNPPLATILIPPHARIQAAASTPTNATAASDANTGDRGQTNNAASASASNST

GSK3B [2] = biological target: T3, GSK3B; experiment: In vitro enzymatic activity assay, GSK3β; format: biochemical; design: Full length human GSK3α or GSK3B expressed as N-terminal GST fusion proteins; GST (N); purchased Carna Biosciences (Japan); host or cells: baculovirus host; details: 1.0 mM ATP, 1.0 μM peptide substrate, 120 min, 25° C, read-out: Enzyme GSK3β (IC50)
GSK3α knockout mice = details: blockade of autophagy and mTOR pathway activation; cited from earlier work

| IC50 (human GSK3α) | IC50 (GSK3A) | IC50 (GSK3B [1]) | IC50 (GSK3B [2]) | SMILES | Km (GSK3α or GSK3B) | reversal of mild aging phenotypes of GSK3α knockout mice (GSK3α knockout mice) |
| --- | --- | --- | --- | --- | --- | --- |
|  |  |  |  | Nc1ncnc2c1ncn2[C@@H]1O[C@H](COP(=O)(O)OP(=O)(O)OP(=O)(O)O)[C@@H](O)[C@H]1O [ATP, adenosine-5′-triphosphate] | 10 to 15 µM |  |
| 11.7 nM | 8.1 nM | 259 nM | 308 nM | CCOc1c(CN)cccc1NC(=O)c1c(N)ncn(-c2c(Cl)cccc2Cl)c1=O [Example 220, 4-amino-N-(3-(aminomethyl)-2-ethoxyphenyl)-1-(2,6-dichlorophenyl)-6-oxo-1,6-dihydropyrimidine-5-carboxamide] |  |  |
| 15.6 nM | 7.3 nM | 235 nM | 400 nM | COc1c(CN)cccc1NC(=O)c1c(N)ncn(-c2c(Cl)cccc2Cl)c1=O [Example 221, 4-amino-N-(3-(aminomethyl)-2-methoxyphenyl)-1-(2,6-dichlorophenyl)-6-oxo-1,6-dihydropyrimidine-5-carboxamide trifluoroacetate] |  |  |
|  |  |  |  | CO[C@H]1C[C@@H]2CC[C@@H](C)[C@@](O)(O2)C(=O)C(=O)N2CCCC[C@H]2C(=O)O[C@H]([C@H](C)C[C@@H]2CC[C@@H](OCCO)[C@H](OC)C2)CC(=O)[C@H](C)/C=C(\C)[C@@H](O)[C@@H](OC)C(=O)[C@H](C)C[C@H](C)/C=C/C=C/C=C/1C [everolimus] |  | could be reversed |
